Usually LC50 stands for the concentration lethal to half of the exposed cells or organisms. Read a low LC50 as a more lethal substance.

From patent publication US4975451A, “Insecticidal cyclopropyl di(aryl) 2-butenes” (FMC Corporation, priority 1989, dated 1990) come the findings set out here.

One data set concerns southern corn rootworm. The data set is described as follows: Soil evaluation, southern corn rootworm. It is filed as in vivo, Diabrotica undecimounctata Howardi. Conditions: rate 7.5 ppm, 48 hours, read-out: Initial % Kill SCR. How it is done: Soil evaluation of insecticidal activity of test compounds were conducted against the southern corn rootworm (Diabrotica undecimounctata Howardi). A 0.25 ml aliquot of a stock solution containing 64 mg of the candidate insecticide in 4.0 ml of acetone was pipetted into 41 mL of distilled water containing 0.1% octylphenoxypolyethoxyethanol emulsifier. […] In all cases, four mL of each test solution was pipetted into a 4 ounce specimen cup containing two two-day-old corn sprouts completely covered by 26 grams of dry sandy soil. The treated soil in each cup was allowed to stand uncovered in a hood to evaporate the acetone. Each cup was capped and the soil in each cup was mixed thoroughly. The cap of each cup was removed, and ten second instar southern corn rootworm larvae were added to each cup. The cups were each covered with lids perforated with two small holes to allow for ventilation. The cups were then held under fluorescent light (12 hours light: 12 hours dark) at 24°-26° C. for 48 hours. An untreated check and an appropriate standard were included in each test. Two replicates were run for each chemical treatment. The unaffected larvae from the soil of each cup were extracted by placing the contents of each cup into a modified Berlese polyethylene funnel fitted with an 18-mesh screen. The funnels were placed over containers of an aqueous detergent solution. Incandescent lights (100 watts) were placed 36 cm above the soil in each funnel. The heat from these lights slowly dried the soil causing larvae that had not been affected by the candidate insecticide to emerge from the soil and drop out of the funnel into the detergent solution. The percent mortality was determined by comparing the number of live larvae in the detergent solution with the total number of larvae infested during the initiation of the test. Percent mortality was determined in this manner for each concentration.

The next data set relates to cabbage looper. The data set is described as follows: Foliar evaluation, cabbage looper. It counts as in vivo. Conditions: Trichoplusia ni, 48 hours, read-out: % Kill CL; for mortality at 100 ppm: rate 100 ppm; for mortality at 500 ppm: rate 500 ppm. How it is done:
(§1) The insecticidal activity of the pyrethroid-like compounds of this invention as identified in Table 1, appended, was evaluated as follows:
(§2) Compounds within the scope of this invention were tested by foliar application at various concentrations in aqueous solutions containing 10% (volume/volume) acetone and water. Insect species utilized included the cabbage looper (Trichoplusia ni), Mexican bean beetle (Epilachna varivestis), pea aphid (Acryrthosiphon pisum), tobacco budworm (Heliothis virescens) and twospotted spider mite (Tetranychus urticae).
(§3) For all insects except the pea aphid, pinto beans (Phaseolus vulgaris) plants were treated with the test solutions. The test solutions were applied with a sprayer to the upper and lower surfaces of the plant leaves to runoff. The plants were then allowed to dry and were severed at the base of the stem before being placed in cups. Ten second instar individuals of the appropriate insect species, except the tobacco budworm, were placed in each cup and the cup covered. Tests with the tobacco budworm used four replicates with each replicate containing five second instar tobacco budworms. In all tests, mortality was read 48 hours later.

The subject of a further data set is twospotted spider mite. The data set is described as follows: Foliar acaricidal test, twospotted spider mite (susceptible). It is filed as in vivo. The following applies: Tetranychus urticae, 48 hours, read-out: % Kill TSM-S; for mortality at 100 ppm: rate 100 ppm; for mortality at 500 ppm: rate 500 ppm. How it is done:
as §1, §2
Acaricidal tests were performed using the following procedure: Leaves infested with adult twospotted spider mites (Tetranvchus urticae) were removed from culture plants and cut into segments containing 50-75 female mites. Each segment was placed on the upper leaf surface of a whole pinto bean plant. After the mites had migrated to the under surfaces of the leaves, the leaf segments used to infest were removed, and each plant was sprayed with test chemicals as described above. After the plants had dried, the entire plant and pot were placed in metal trays in a hood, a supply of water in the tray keeping the plants turgid. After 48 hours the living and dead mites were counted, and percent mortality was calculated.

The subject of a further data set is tobacco budworm. The data set is described as follows: Foliar evaluation, tobacco budworm. It is filed as in vivo. Conditions: Heliothis virescens, 48 hours, read-out: % Kill TBW; for mortality at 100 ppm: rate 100 ppm; for mortality at 500 ppm: rate 500 ppm. How it is done: as §1, §2, §3
The nature of another data set: Fish toxicity, tilapia. It counts as in vivo. The following applies: water; Tilapia (Oreochromis niloticus), 48 hour test. How it is done:
Compounds of the present invention were tested for toxicity to fish using one inch long tilapia (Oreochromis niloticus). Prior to the test the tilapia were acclimated for one week in an aquarium, during which time they were fed with a ration of rice bran and pelletized hog feed. The water in the aquarium was changed daily with distilled water.
Stock solutions of each of the test chemicals were prepared by dissolving the weighed technical material in acetone and adding distilled water to provide a 1% acetone in water solution.
The test solutions were prepared by diluting the appropriate amount of a stock solution to 25 mL with distilled water. The appropriate amount of stock solution was determined for the concentration required in a final volume of 800 mL of test solution. The test chemicals were tested in triplicate at concentrations ranging from 0.005 ppm to 20 ppm. The actual concentrations of the test chemicals needed to determine LC50 values were determined by fish toxicity-range of application studies prior to the LC50 test. Each 25 mL test chemical solution was added to a one liter aquarium containing 500 mL of 0.01% (v/v) ethylene glycol in water. The aquariums were shaken gently and then allowed to stand for one hour. After this time the tilapia were added by first placing five fish in a container with 275 mL of distilled water and then pouring the water and fish into each aquarium. The dead and live fish were counted after 24 and 48 hours. Any fish observed to be dead was removed from its aquarium immediately. Upon completion of the 48 hour test period, the lethal concentration of each compound tested that would give 50% mortality to the tilapia was determined.

Another data set concerns pea aphid. Briefly: Foliar evaluation, pea aphid. It counts as in vivo, Acryrthosiphon pisum. Conditions: Acyrthosiphon pisum, 48 hours, read-out: % Kill PA; for mortality at 100 ppm: rate 100 ppm; for mortality at 500 ppm: rate 500 ppm. How it is done:
as §1, §2, §3
In the case of the pea aphid, fava bean (Vicia faba) was substituted for pinto bean. The treated, potted plants were placed in cups infested with ten individuals and covered. Mortality was read 48 hours later.

Another data set deals with Mexican bean beetle. The data set is described as follows: Foliar evaluation, Mexican bean beetle. It counts as in vivo. Conditions: Epilachna varivestis, 48 hours, read-out: % Kill MBB; for mortality at 100 ppm: rate 100 ppm. How it is done: as §1, §2, §3

≈ marks a conversion by molar mass, not a printed value.

As for `Clc1ccc(C(C=CCc2cccc(Oc3ccccc3)c2)C2CC2)cc1` (stereo not shown) [Compound 1], the mortality at 7.5 ppm in the data set on southern corn rootworm was found to be 45%. In addition, the mortality at 100 ppm amounted to 100% in the data set with cabbage looper; 2% in the data set on twospotted spider mite; 100% in the data set with tobacco budworm; 75% with pea aphid; 100% in the data set on Mexican bean beetle. The LC50 at 48 h in the data set “Fish toxicity, tilapia” was 3 to 5 µg/mL (≈ 8 to 13.3 µM).

In the case of `Fc1ccc(CC=CC(c2ccc(Cl)cc2)C2CC2)cc1Oc1ccccc1` (stereo not shown) [Compound 2, 1-cyclopropyl-1-(4-chlorophenyl)-4-(4-fluoro-3-phenoxyphenyl)-2-butene], in the data set on southern corn rootworm, the mortality at 7.5 ppm was determined as 45%. The mortality at 100 ppm in the data set with cabbage looper was 100%; with twospotted spider mite, 0%; with tobacco budworm, 100%; in the data set with pea aphid it was 80%; in the data set on Mexican bean beetle it was 100%. Moreover, the LC50 at 48 h in the data set “Fish toxicity, tilapia” is 7.5 to 10 µg/mL (≈ 19.1 to 25.5 µM).

On to `FC(F)(F)c1ccc(C(C=CCc2cccc(Oc3ccccc3)c2)C2CC2)cc1` (stereo not shown) [Compound 3], for which, in the data set on southern corn rootworm, the mortality at 7.5 ppm worked out at 60%. Moreover, the mortality at 100 ppm in the data set on cabbage looper amounted to 90%; in the data set with twospotted spider mite, 90%; in the data set on tobacco budworm, 100%; in the data set on pea aphid, 45%; with Mexican bean beetle it was 100%. In addition, in “Fish toxicity, tilapia”, the LC50 at 48 h is 5 to 7.5 µg/mL (≈ 12.2 to 18.4 µM).

Turning to `Fc1ccc(CC=CC(c2ccc(C(F)(F)F)cc2)C2CC2)cc1Oc1ccccc1` (stereo not shown) [Compound 4], the mortality at 100 ppm with cabbage looper is 100%; with twospotted spider mite, 90%; in the data set with tobacco budworm, 100%; in the data set on pea aphid it was 90%; in the data set with Mexican bean beetle, 100%.

For `FC(F)(F)Oc1ccc(C(C=CCc2cccc(Oc3ccccc3)c2)C2CC2)cc1` (stereo not shown) [Compound 5], the mortality at 7.5 ppm in the data set on southern corn rootworm was found to be 50%. Besides, the mortality at 100 ppm in the data set with cabbage looper was determined as 85%; with twospotted spider mite, 100%; in the data set with tobacco budworm, 80%; in the data set with pea aphid it was 100%; with Mexican bean beetle it was 100%. This compound had an LC50 at 48 h in “Fish toxicity, tilapia” of 1 to 3 µg/mL (≈ 2.36 to 7.07 µM).

Consider `Fc1ccc(CC=CC(c2ccc(OC(F)(F)F)cc2)C2CC2)cc1Oc1ccccc1` (stereo not shown) [Compound 6, 1-cyclopropyl-1-(4-trifluoromethoxyphenyl)-4-(4-fluoro-3-phenoxyphenyl)-2-butene], for which, in the data set on southern corn rootworm, the mortality at 7.5 ppm is 70%. Moreover, the mortality at 100 ppm in the data set on cabbage looper worked out at 100%; in the data set with twospotted spider mite, 99%; in the data set on tobacco budworm, 100%; in the data set on pea aphid it was 85%; in the data set on Mexican bean beetle it was 100%. In addition, the LC50 at 48 h in the data set “Fish toxicity, tilapia” turned out to be 9 µg/mL (≈ 20.3 µM).

As to `Cc1c(CC=CC(c2ccc(Cl)cc2)C2CC2)cccc1-c1ccccc1` (stereo not shown) [Compound 7], the mortality at 7.5 ppm with southern corn rootworm came out at 50%. Further, the mortality at 500 ppm amounted to 100% in the data set with cabbage looper; 7% in the data set with twospotted spider mite; 100% with tobacco budworm; 60% in the data set on pea aphid; 100% in the data set with Mexican bean beetle (rate 500 ppm).

As for `Cc1c(CC=CC(c2ccc(OCC3CC3)cc2)C2CC2)cccc1-c1ccccc1` (stereo not shown) [Compound 8], the mortality at 500 ppm in the data set on cabbage looper was determined as 100%; in the data set on twospotted spider mite, 0%; in the data set on tobacco budworm it was 22%; with pea aphid, 5%.

With `CCOc1ccc(C(C=CCc2cccc(-c3ccccc3)c2C)C2CC2)cc1` (stereo not shown) [Compound 9], the mortality at 1000 ppm with cabbage looper (rate 1000 ppm) turned out to be 100%; with twospotted spider mite (rate 1000 ppm), 100%; in the data set on pea aphid (rate 1000 ppm), 100%; in the data set with Mexican bean beetle (rate 1000 ppm), 90%.

`CC1(C)C(C=C(Cl)Cl)C1C(=O)OC(C#N)c1cccc(Oc2ccccc2)c1` (stereo not shown) [cypermethrin, reference compound] displayed an LC50 at 48 h in the data set “Fish toxicity, tilapia” of 0.02 µg/mL (≈ 0.048 µM).
